In experiment [1] the target is T1, SPT (SPT2-expressing membrane fraction: human SPT1, human SPT2 and human ssSPTa) (Homo sapiens, UniProt O15269+O15270).
T1 construct: Full-length human SPT1, human SPT2 and human ssSPTa used; made in house; host or cells: FreeStyle 293 cells (pcDNA3.1 vectors, cotransfection); crude membrane fraction used
T1 sequence (O15269 1-473): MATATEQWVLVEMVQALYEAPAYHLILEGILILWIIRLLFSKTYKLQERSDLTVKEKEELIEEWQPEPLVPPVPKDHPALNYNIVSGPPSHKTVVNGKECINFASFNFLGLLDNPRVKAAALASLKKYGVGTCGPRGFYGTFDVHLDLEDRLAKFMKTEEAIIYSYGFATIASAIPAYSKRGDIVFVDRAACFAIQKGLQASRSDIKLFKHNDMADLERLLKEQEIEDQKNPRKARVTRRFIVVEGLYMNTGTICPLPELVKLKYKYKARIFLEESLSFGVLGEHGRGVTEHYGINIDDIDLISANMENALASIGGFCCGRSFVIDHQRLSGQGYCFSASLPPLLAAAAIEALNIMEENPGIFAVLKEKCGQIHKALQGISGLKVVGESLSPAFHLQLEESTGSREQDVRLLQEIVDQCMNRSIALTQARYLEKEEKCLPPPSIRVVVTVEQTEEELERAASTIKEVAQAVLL
T1 sequence (O15270 1-562): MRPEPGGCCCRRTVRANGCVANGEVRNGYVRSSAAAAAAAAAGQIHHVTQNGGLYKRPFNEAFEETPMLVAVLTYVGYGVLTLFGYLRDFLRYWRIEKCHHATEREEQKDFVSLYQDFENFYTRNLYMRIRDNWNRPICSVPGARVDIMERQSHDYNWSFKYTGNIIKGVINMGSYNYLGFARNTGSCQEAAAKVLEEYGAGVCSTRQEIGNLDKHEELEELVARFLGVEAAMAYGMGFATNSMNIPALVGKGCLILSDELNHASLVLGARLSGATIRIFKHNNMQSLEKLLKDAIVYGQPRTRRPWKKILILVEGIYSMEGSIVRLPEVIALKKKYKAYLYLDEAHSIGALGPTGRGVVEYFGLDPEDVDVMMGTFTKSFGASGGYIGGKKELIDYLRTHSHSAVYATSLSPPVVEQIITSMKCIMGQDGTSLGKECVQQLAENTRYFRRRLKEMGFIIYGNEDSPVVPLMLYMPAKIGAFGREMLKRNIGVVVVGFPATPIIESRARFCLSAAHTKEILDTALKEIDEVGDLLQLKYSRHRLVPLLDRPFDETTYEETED
T1 sequence (Q969W0 1-71 partner): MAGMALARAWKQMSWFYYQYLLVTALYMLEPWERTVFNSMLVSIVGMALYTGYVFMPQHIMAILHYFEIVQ
As to the kind of experiment: SPT enzyme inhibition test (Test Example 1). It counts as biochemical. To be noted: read-out: Rate of inhibition (%) at 1 μM. In a few lines:
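Membrane fraction (100 μg/mL stock) of cells expressing human SPT1, SPT2 and ssSPTa was preincubated 60 min at RT with compound in 100 mM Hepes pH 8.0 containing EDTA, DTT and 0.01% BSA. Reaction ran 15 min at RT with 2 mM L-serine and 20 μM palmitoyl CoA (solution concentrations), then formic acid quench. Product measured by RapidFire mass spectrometry against a C17-sphinganine internal standard, giving % inhibition.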

For experiment [2], the system named is lung adenocarcinoma cell line HCC4006. As to the kind of experiment: HCC4006 cell growth inhibition test (Test Example 2). To be noted: Homo sapiens, 120 h; 1 μM test compound; HCC4006 cells, culture for 5 days, CellTiter-Glo; read-out: Rate of inhibition (%) at 1 μM. It counts as cell-based. In outline:
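HCC4006 cells in RPMI-1640 with 10% FBS were seeded at 250 cells/well and dosed with compound the next day. After 5 days, viability was read by CellTiter-Glo luminescence. Percent inhibition was calculated against no-compound control and cell-free blank.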
A general note: Cellular ATP, detected with luciferase, serves as a proxy for viable cell number.

As a reminder, the inhibition is the relative decrease from the control value, in per cent. For the compound `COc1cc(C(=O)N2CC[C@@H](NC(=O)c3cnn(C)c3Cl)[C@@H](c3ccccc3)C2)cnc1OC` [Example 150B, 5-chloro-N-((3S,4R)-1-((5,6-dimethoxypyridin-3-yl)carbonyl)-3-phenylpiperidin-4-yl)-1-methyl-1H-pyrazole-4-carboxamide], the results for the inhibition at 1 µM in experiment [1] and in experiment [2] were 101% and 47%, respectively.
With `COc1cc(C(=O)N2CC[C@@H](NC(=O)c3cc(C)nn3C)[C@@H](c3ccccc3)C2)cnc1OC` [Example 151B, N-((3S,4R)-1-((5,6-dimethoxypyridin-3-yl)carbonyl)-3-phenylpiperidin-4-yl)-1,3-dimethyl-1H-pyrazole-5-carboxamide], the inhibition at 1 µM in experiment [1] is 99%; in experiment [2], 51%.
The matching figures for `COc1cc(C(=O)N2CC[C@@H](NC(=O)c3cn(C)nc3C)[C@@H](c3ccccc3)C2)cnc1OC` [Example 152B, N-((3S,4R)-1-((5,6-dimethoxypyridin-3-yl)carbonyl)-3-phenylpiperidin-4-yl)-1,3-dimethyl-1H-pyrazole-4-carboxamide]: 96% and 33%.
In the case of `CCn1ncc2c1C(NC(=O)c1ccc(Cl)cc1C(F)(F)F)CCN2C(=O)c1cnc(OC)c(OC)c1` (centres unmarked) [Example 153A, 4-Chloro-N-(4-((5,6-dimethoxypyridin-3-yl)carbonyl)-1-ethyl-4,5,6,7-tetrahydro-1H-pyrazolo[4,3-b]pyridin-7-yl)-2-(trifluoromethyl)benzamide], the inhibition at 1 µM came to 101% in experiment [1] and 53% in experiment [2].
The matching figures for `CCn1ncc2c1C(NC(=O)c1ccccc1OC(F)(F)F)CCN2C(=O)c1cnc(OC)c(OC)c1` (centres unmarked) [Example 155A, N-(4-((5,6-Dimethoxypyridin-3-yl)carbonyl)-1-ethyl-4,5,6,7-tetrahydro-1H-pyrazolo[4,3-b]pyridin-7-yl)-2-(trifluoromethoxy)benzamide]: 103% and 53%.
Consider `CCn1ncc2c1[C@@H](NC(=O)c1ccc(Cl)cc1C(F)(F)F)CCN2C(=O)c1cnc(OC)c(OC)c1` [Example 165A, 4-Chloro-N-((7S)-4-((5,6-dimethoxypyridin-3-yl)carbonyl)-1-ethyl-4,5,6,7-tetrahydro-1H-pyrazolo[4,3-b]pyridin-7-yl)-2-(trifluoromethyl)benzamide], for which the inhibition at 1 µM in experiment [1] was 101%; in experiment [2], 52%.
The matching figures for `Cc1nn(C)c(Cl)c1C(=O)N[C@@H]1CCN(C(=O)c2cc(Cl)c3nccnc3c2)C[C@@H]1c1ccccc1` [Example 166B, 5-Chloro-N-((3S,4R)-1-((8-chloroquinoxalin-6-yl)carbonyl)-3-phenylpiperidin-4-yl)-1,3-dimethyl-1H-pyrazole-4-carboxamide]: 101% and 53%.
The matching figures for `COc1ncc(C(=O)N2CC[C@H](NC(=O)c3ccc(Cl)cc3C(F)(F)F)c3c2cnn3CC(F)F)cc1Cl` [Example 170A, 4-Chloro-N-((7S)-4-((5-chloro-6-methoxypyridin-3-yl)carbonyl)-1-(2,2-difluoroethyl)-4,5,6,7-tetrahydro-1H-pyrazolo[4,3-b]pyridin-7-yl)-2-(trifluoromethyl)benzamide]: 99% and 50%.
The matching figures for `CCOc1cc(C(=O)N[C@@H]2CCN(C(=O)c3cc(Cl)c4nccnc4c3)C[C@@H]2c2ccccc2)n(C)n1` [Example 170B, N-((3S,4R)-1-((8-Chloroquinoxalin-6-yl)carbonyl)-3-phenylpiperidin-4-yl)-3-ethoxy-1-methyl-1H-pyrazole-5-carboxamide]: 100% and 50%.
As for `COc1cc(C(=O)N2CC[C@H](NC(=O)c3ccccc3OC(F)(F)F)c3c2cnn3C)cnc1OC` [Example 171A, N-((7S)-4-((5,6-Dimethoxypyridin-3-yl)carbonyl)-1-methyl-4,5,6,7-tetrahydro-1H-pyrazolo[4,3-b]pyridin-7-yl)-2-(trifluoromethoxy)benzamide], the inhibition at 1 µM in experiment [1] came out at 101%; in experiment [2] it was 50%.
The matching figures for `CCn1ncc2c1[C@@H](NC(=O)c1ccccc1OC(F)(F)F)CCN2C(=O)c1cnc(OC)c(OC)c1` [Example 178A, N-((7S)-4-((5,6-Dimethoxypyridin-3-yl)carbonyl)-1-ethyl-4,5,6,7-tetrahydro-1H-pyrazolo[4,3-b]pyridin-7-yl)-2-(trifluoromethoxy)benzamide]: 101% and 53%.
The like results for `COc1ccc(C(=O)N2CCC(NC(=O)c3ccccc3Cl)c3c2cnn3CCC(C)(C)O)cc1OC` (centres unmarked) [Example 186A, 2-chloro-N-(4-(3,4-dimethoxybenzoyl)-1-(3-hydroxy-3-methylbutyl)-4,5,6,7-tetrahydro-1H-pyrazolo[4,3-b]pyridin-7-yl)benzamide] were, in that order, 101% and 47%.
The matching figures for `COc1cc(C(=O)N2CC[C@@H](NC(=O)c3ncccc3C(F)(F)F)[C@@H](c3ccc(F)cc3)C2)cnc1OC` [Example 191B, N-((3S,4R)-1-((5,6-dimethoxypyridin-3-yl)carbonyl)-3-(4-fluorophenyl)piperidin-4-yl)-3-(trifluoromethyl)pyridine-2-carboxamide]: 100% and 47%.
For `O=C(N[C@@H]1CCN(C(=O)c2cc(Cl)c3nccnc3c2)C[C@@H]1c1ccccc1)c1ncccc1C(F)(F)F` [Example 241B, N-((3S,4R)-1-((8-Chloroquinoxalin-6-yl)carbonyl)-3-phenylpiperidin-4-yl)-3-(trifluoromethyl)pyridine-2-carboxamide], the inhibition at 1 µM was determined as 101% in experiment [1] and 54% in experiment [2].
The like results for `O=C(N[C@@H]1CCN(C(=O)c2cc(Cl)c3nccnc3c2)C[C@@H]1c1ccc(F)cc1)c1ncccc1C(F)(F)F` [Example 245B, N-((3S,4R)-1-((8-Chloroquinoxalin-6-yl)carbonyl)-3-(4-fluorophenyl)piperidin-4-yl)-3-(trifluoromethyl)pyridine-2-carboxamide] were, in that order, 100% and 53%.
On to `O=C(N[C@@H]1CCN(C(=O)c2cc(Cl)c3nccnc3c2)C[C@@H]1c1ccccc1)c1ncccc1Cl` [Example 246B, 3-Chloro-N-((3S,4R)-1-((8-chloroquinoxalin-6-yl)carbonyl)-3-phenylpiperidin-4-yl)pyridine-2-carboxamide], for which the results for the inhibition at 1 µM in experiment [1] and in experiment [2] were 101% and 55%, respectively.
For the compound `O=C(N[C@@H]1CCN(C(=O)c2cc(Cl)c3nccnc3c2)C[C@@H]1c1ccccc1)c1ccccc1OC(F)(F)F` [Example 254B, N-((3S,4R)-1-((8-chloroquinoxalin-6-yl)carbonyl)-3-phenylpiperidin-4-yl)-2-(trifluoromethoxy)benzamide], the inhibition at 1 µM was 99% in experiment [1] and 55% in experiment [2].
`Cc1cc(C(=O)N2CC[C@@H](NC(=O)c3ncccc3C(F)(F)F)[C@@H](c3ccccc3)C2)cn2c(C)cnc12` [Example 279B, N-((3S,4R)-1-((3,8-dimethylimidazo[1,2-a]pyridin-6-yl)carbonyl)-3-phenylpiperidin-4-yl)-3-(trifluoromethyl)pyridine-2-carboxamide]: the inhibition at 1 µM in experiment [1] came out at 103%; in experiment [2] it was 44%.
The like results for `COc1cc(C(=O)N2CC[C@@H](NC(=O)c3c(C)c(C)nn3C)[C@@H](c3ccccc3)C2)cc2nccnc12` [Example 324B, N-((3S,4R)-1-((8-methoxyquinoxalin-6-yl)carbonyl)-3-phenylpiperidin-4-yl)-1,3,4-trimethyl-1H-pyrazole-5-carboxamide] were, in that order, 99% and 49%.

Values taken from patent publication US10189785B2, “Heterocyclic compound” (TAKEDA PHARMACEUTICAL COMPANY LIMITED, priority 2015, dated 2019).
